Measurements: the NIST ThermoML archive (doi:10.1021/je030117d)

Columns and labels:
[1] = refractive index (Na D-line) (dimensionless); conditions: 298.15 K; 101.33 kPa; Liquid; Standard Abbe refractometry
[2] = Liquid; for mass density: 298.15 K, 101.33 kPa, Vibrating tube method; for Normal boiling temperature: Ebulliometric method (Recirculating still)
[3] = xn = mol fraction of the nth substance listed; conditions: 298.15 K, 101.33 kPa, Liquid, Vibrating tube method
[4] = excess molar enthalpy (molar enthalpy of mixing); xn = mol fraction of the nth substance listed; conditions: 298.15 K, 101.33 kPa, Liquid, Calvet calorimetry

CCCCCCC [heptane]
Conditions | Normal boiling temperature [°C] | mass density [kg/m3] | refractive index
[1] | – | – | 1.3853
[2] | 98.20 | 679.3 | –

CCCC(=O)OC [methyl butanoate]
Conditions | Normal boiling temperature [°C] | mass density [kg/m3] | refractive index
[1] | – | – | 1.3852
[2] | 102.38 | 892.52 | –

CCCC(=O)OC [methyl butanoate] + CCCCCCC
[3]
Conditions | mass density [kg/m3]
x1 = 0.0337 | 684.36
x1 = 0.0689 | 689.75
x1 = 0.102 | 694.93
x1 = 0.1531 | 703.25
x1 = 0.2487 | 719.6
x1 = 0.3261 | 733.58
x1 = 0.3824 | 744.29
x1 = 0.4586 | 759.5
x1 = 0.5333 | 775.25
x1 = 0.6085 | 791.88
x1 = 0.6618 | 804.18
x1 = 0.7161 | 817.1
x1 = 0.7869 | 834.67
x1 = 0.8394 | 848.24
x1 = 0.8882 | 861.22
x1 = 0.9255 | 871.41

COC(C)=O [methyl ethanoate]
Conditions | Normal boiling temperature [°C] | mass density [kg/m3] | refractive index
[1] | – | – | 1.3589
[2] | 56.70 | 927.14 | –

COC(C)=O [methyl ethanoate] + CCCCCCC
[3]
Conditions | mass density [kg/m3]
x1 = 0.0676 | 686.77
x1 = 0.1019 | 690.81
x1 = 0.1594 | 698.12
x1 = 0.2497 | 710.82
x1 = 0.3137 | 721.1
x1 = 0.4011 | 736.76
x1 = 0.4829 | 753.42
x1 = 0.5498 | 768.76
x1 = 0.6215 | 786.97
x1 = 0.6765 | 802.41
x1 = 0.7204 | 815.61
x1 = 0.7841 | 836.35
x1 = 0.8342 | 854.72
x1 = 0.8837 | 873.99
x1 = 0.9248 | 891.52
x1 = 0.9632 | 908.98

COC=O [methyl methanoate]
Conditions | Normal boiling temperature [°C] | mass density [kg/m3] | refractive index
[1] | – | – | 1.3412
[2] | 31.64 | 966.18 | –

COC=O [methyl methanoate] + CCCCCCC
Conditions | excess molar enthalpy [kcal/mol] | mass density [kg/m3]
[3], x1 = 0.042 | – | 682.76
[3], x1 = 0.1206 | – | 689.96
[3], x1 = 0.2235 | – | 702.15
[3], x1 = 0.3614 | – | 723.34
[3], x1 = 0.4593 | – | 741.73
[3], x1 = 0.5364 | – | 759.27
[3], x1 = 0.6079 | – | 778.2
[3], x1 = 0.6651 | – | 795.64
[3], x1 = 0.7799 | – | 837.8
[3], x1 = 0.8321 | – | 861.36
[3], x1 = 0.8729 | – | 882.18
[3], x1 = 0.911 | – | 904.19
[3], x1 = 0.946 | – | 926.26
[3], x1 = 0.9736 | – | 945.92
[3], x1 = 0.9935 | – | 961.3
[4], x1 = 0.0673 | 0.123 | –
[4], x1 = 0.1535 | 0.268 | –
[4], x1 = 0.2499 | 0.403 | –
[4], x1 = 0.3332 | 0.484 | –
[4], x1 = 0.4008 | 0.52 | –
[4], x1 = 0.4555 | 0.538 | –
[4], x1 = 0.5004 | 0.546 | –
[4], x1 = 0.5354 | 0.546 | –
[4], x1 = 0.5709 | 0.545 | –
[4], x1 = 0.6389 | 0.521 | –
[4], x1 = 0.6745 | 0.506 | –
[4], x1 = 0.7144 | 0.479 | –
[4], x1 = 0.7527 | 0.452 | –
[4], x1 = 0.794 | 0.412 | –
[4], x1 = 0.8313 | 0.363 | –
[4], x1 = 0.8721 | 0.303 | –
[4], x1 = 0.9068 | 0.234 | –
[4], x1 = 0.9426 | 0.157 | –
[4], x1 = 0.973 | 0.0807 | –

CCCCC(=O)OC [methyl pentanoate]
Conditions | mass density [kg/m3] | refractive index
[1] | – | 1.3947
[2] | 884.58 | –

[2]
Conditions | vapor or sublimation pressure [kPa]
364.75 K | 32.01
365.85 K | 33.33
366.98 K | 34.67
368.03 K | 36
369.05 K | 37.33
370.1 K | 38.66
371.03 K | 40.01
371.97 K | 41.33
372.92 K | 42.66
373.81 K | 43.99
374.7 K | 45.33
375.56 K | 46.64
376.4 K | 48.01
377.18 K | 49.33
378.01 K | 50.64
378.82 K | 51.98
379.59 K | 53.33
380.33 K | 54.67
381.1 K | 56
381.82 K | 57.33
382.51 K | 58.67
383.29 K | 59.99
383.95 K | 61.33
384.62 K | 62.68
385.25 K | 63.99
385.95 K | 65.33
386.57 K | 66.66
387.18 K | 67.99
387.84 K | 69.32
388.44 K | 70.66
389.08 K | 71.99
389.65 K | 73.33
390.24 K | 74.65
390.82 K | 76
391.39 K | 77.3
391.94 K | 78.66
392.5 K | 79.99
393.04 K | 81.33
393.61 K | 82.66
394.12 K | 83.98
394.65 K | 85.33
395.16 K | 86.66
395.69 K | 88
396.2 K | 89.33
396.7 K | 90.67
397.18 K | 91.98
397.67 K | 93.35
398.2 K | 94.67
398.65 K | 95.99
399.15 K | 97.32
399.59 K | 98.66
400.07 K | 99.99
400.54 K | 101.32
401 K | 102.66
401.45 K | 104.01
401.91 K | 105.33
402.3 K | 106.66
402.75 K | 107.99
403.2 K | 109.32
403.62 K | 110.58
404.06 K | 111.98
404.45 K | 113.3
404.88 K | 114.66
405.31 K | 115.99
405.71 K | 117.32
406.12 K | 118.69
406.52 K | 119.98
406.91 K | 121.36
407.3 K | 122.64
407.7 K | 124
408.08 K | 125.32
408.49 K | 126.67
408.85 K | 127.99
409.23 K | 129.32
409.62 K | 130.64
409.98 K | 132.01
410.35 K | 133.34
410.71 K | 134.64
411.07 K | 135.99
411.44 K | 137.33
411.8 K | 138.63
412.15 K | 139.99
412.49 K | 141.33
412.85 K | 142.67
413.21 K | 143.99
413.55 K | 145.32
413.89 K | 146.65
414.22 K | 148
414.55 K | 149.34
414.91 K | 150.65
415.23 K | 151.99
415.57 K | 153.32
415.87 K | 154.61
416.21 K | 155.97
416.55 K | 157.29
416.87 K | 158.66
417.18 K | 159.97

CCCCC(=O)OC [methyl pentanoate] + CCCCCCC
[3]
Conditions | mass density [kg/m3]
x1 = 0.0172 | 682.12
x1 = 0.0613 | 689.72
x1 = 0.1404 | 703.9
x1 = 0.2074 | 716.09
x1 = 0.2867 | 731.09
x1 = 0.3552 | 744.33
x1 = 0.4135 | 755.77
x1 = 0.4931 | 771.88
x1 = 0.5619 | 786.14
x1 = 0.631 | 800.74
x1 = 0.7038 | 816.52
x1 = 0.7607 | 828.99
x1 = 0.8392 | 846.84
x1 = 0.9149 | 864.2
x1 = 0.9531 | 873.23
x1 = 0.9836 | 880.67

CCC(=O)OC [methyl propanoate]
Conditions | Normal boiling temperature [°C] | mass density [kg/m3] | refractive index
[1] | – | – | 1.3745
[2] | 78.50 | 908.59 | –

CCC(=O)OC [methyl propanoate] + CCCCCCC
[3]
Conditions | mass density [kg/m3]
x1 = 0.064 | 687.65
x1 = 0.1117 | 694.35
x1 = 0.1561 | 700.97
x1 = 0.2628 | 718.15
x1 = 0.365 | 736.5
x1 = 0.4343 | 750.1
x1 = 0.5113 | 766.46
x1 = 0.5683 | 779.43
x1 = 0.6351 | 795.65
x1 = 0.7017 | 812.9
x1 = 0.7543 | 827.61
x1 = 0.8136 | 845.12
x1 = 0.8664 | 861.73
x1 = 0.903 | 873.85
x1 = 0.9689 | 896.98
